Results as given in paper PMC7772889, “Integrating biokinetics and in vitro studies to evaluate developmental neurotoxicity induced by chlorpyrifos in human iPSC-derived neural stem cells undergoing differentiation towards neuronal and glial cells” (Reproductive Toxicology (Elmsford, N.y.), 2020).

How the values were obtained:
[1] = cited from earlier work
[2] = Chemical solubility and stability / recovery from medium (HPLC-UV); format: physicochemical
Description: The solubility and stability of CPF in water, medium and DMSO (the vehicle used to prepare stock solutions), were checked in preliminary assays, mimicking the actual experimental conditions: maximum concentration used; 37 °C; controlled pH; different incubation times. Samples in amber glass vials with screw caps were stored at −80 °C until the analysis for quantifying CPF by means of HPLC-UV was carried out.
Plastic-bound fraction was injected as such.

[3] = tested on: hiPSC-derived NSCs undergoing differentiation; assay: Proportion of neurons (β-III-Tubulin+) and astrocytes (GFAP+) by immunocytochemistry and HCI; format: cell-based, human; conditions: 14 days
Description: (§1) After 14 days of treatment with CPF at the nominal concentrations of 18.45, 21.21, 24.39, 28.05, 32.26, and 37.10 μM (37.10 μM equal to IC20), obtained considering a 1-to-1.15 dilution factor, cells were fixed with 4 % formaldehyde for 10 min and washed three times in PBS 1 × . After 15 min permeabilization with PBS 1X containing 0.1 % Triton-X-100 and 3,5 % bovine serum albumin (BSA), cells were further incubated with 3,5 % BSA and 1X PBS (blocking solution) for 15 min, to prevent nonspecific binding of antibodies, and then incubated at 4 °C overnight with primary antibodies in blocking solution. […] Neurite outgrowth and BDNF protein levels were assessed by staining the cells with an antibody specific for β-III-tubulin (mouse, 1:500, ThermoFisher), and one for BDNF (rabbit, 1:70, ThermoFisher). […] Mean fluorescence intensity and the relative percentages of immunocytochemically-defined cell types were quantified using the ArrayScan™ XTI High Content Platform (Cellomics) (ThermoFisher) and the ArrayScan algorithm 'Neuronal Profiling V4.1', as previously described. […] Other masks were applied to identify the neurites, their branch points, and the fluorescence intensity levels of SYP and PSD95 puncta, or BDNF protein. […]

BDNF protein = BDNF protein levels by immunocytochemistry and HCI; format: cell-based, human; conditions: 14 days of CPF treatment, dose-dependent, vs solvent control
Description: as §1

[4] = Cross-contamination among wells; format: physicochemical
Description: In the adjacent wells to those containing CPF, at the applied concentrations, a corresponding amount of DMSO (vehicle control) was added. At the end of the experiment, the content of these control wells was stored at −80 °C until HPLC analysis. The CPF content in control wells served as an indication of possible contamination across wells, due to CPF evaporation.

[5] = tested on: hiPSC-derived NSCs undergoing differentiation; assay: Spontaneous electrical activity by multi-well MEA; format: cell-based, human
Description: Cells were plated in complete ND medium onto polyethyleneimine (PEI)- and laminin-coated 24-well-MEA plates (24-Well Plate Glass (24W300/30G-288) V.232, 12 gold microelectrodes/well) (MultiChannel Systems) (5 × 10^5 cells/well), and on day 7 of differentiation cells were treated with CPF at 21 μM or solvent control (0.1 % DMSO) for 14 days. Electrical activity was evaluated before adding CPF (0d) or solvent control, and monitored after 3, 7, 10 and 14 days of treatment (Fig. 2). Representative electrode recordings were considered for the analysis of spike rate (number of spikes/sec), burst count (considering a burst as a train of at least 5 spikes occurring within 100 millisec), and network burst count (the number of bursts that resulted synchronized among all 12 electrodes). Electrical activity was recorded using the Multi-well MEA-System, considering a sampling rate of 20,000 Hz, a low-pass filter cutoff frequency of 3500 Hz, and a high-pass filter cutoff frequency of 100 Hz. Data represent the average of at least three biological replicates.

neuron-only cultures = conditions: cited from earlier work
[6] = cited from earlier work; remark: listed apart in the source
[7] = tested on: hiPSC-derived NSCs undergoing differentiation; assay: Neurite outgrowth by immunocytochemistry and high content imaging (β-III-tubulin); format: cell-based, human; conditions: 14 days
Description: After 14 days of treatment with CPF at the nominal concentrations of 18.45, 21.21, 24.39, 28.05, 32.26, and 37.10 μM (37.10 μM equal to IC20), obtained considering a 1-to-1.15 dilution factor, cells were fixed with 4 % formaldehyde for 10 min and washed three times in PBS 1 × . After 15 min permeabilization with PBS 1X containing 0.1 % Triton-X-100 and 3,5 % bovine serum albumin (BSA), cells were further incubated with 3,5 % BSA and 1X PBS (blocking solution) for 15 min, to prevent nonspecific binding of antibodies, and then incubated at 4 °C overnight with primary antibodies in blocking solution. For synaptogenesis analysis, cells were stained with microtubule-associated protein-2 (MAP2, chicken, 1:3000, Abcam), synaptophysin (pre-synaptic marker) (SYP, rabbit, 1:300, Abcam), and post-synaptic density protein 95 (PSD95, mouse, 1:300, Abcam) specific antibodies. Neurite outgrowth and BDNF protein levels were assessed by staining the cells with an antibody specific for β-III-tubulin (mouse, 1:500, ThermoFisher), and one for BDNF (rabbit, 1:70, ThermoFisher). Cells were also stained for glial fibrillary acidic protein (GFAP, chicken, 1:500, Abcam). The following day, cells were washed three times with PBS 1X and incubated for 1 h at room temperature in the dark with DyLight-conjugated secondary antibodies (1:500, Abcam) and nuclei counterstained with 1 μg/mL DAPI (ThermoFisher). Mean fluorescence intensity and the relative percentages of immunocytochemically-defined cell types were quantified using the ArrayScan™ XTI High Content Platform (Cellomics) (ThermoFisher) and the ArrayScan algorithm 'Neuronal Profiling V4.1', as previously described. This algorithm applies a specific nucleus mask around the DAPI stained nucleus, distinguishing between live and pyknotic/dead cells, a cell body mask around the cell type antibody/antigen staining (i.e., MAP2, β-III-tubulin, or GFAP). Other masks were applied to identify the neurites, their branch points, and the fluorescence intensity levels of SYP and PSD95 puncta, or BDNF protein. […]

[8] = tested on: CYP and GST gene expression in hiPSC-derived NSCs undergoing differentiation; assay: qPCR analysis of CYP and GST gene expression after CPF treatment; format: cell-based, human; conditions: 21 μM CPF
Description: Analysis of gene expression by qPCR was performed in hiPSC-derived NSCs undergoing differentiation upon single and repeated treatment with 21 μM CPF or solvent control (0.1 % DMSO), collecting samples after 1, 3, 6 and 24 h (as shown in Fig. 2). RNA was isolated using the RNAqueous®-Micro Kit (ThermoFisher) according to manufacturer's instructions, and 500 ng of total RNA was reverse transcribed by using the High Capacity cDNA Reverse Transcription Kit (as directed, ThermoFisher).
qPCR reactions were run in duplicate using TaqMan® Gene Expression Master Mix (ThermoFisher) and the TaqMan gene expression assays shown in Table 1 (all from ThermoFisher).
Fluorescent emission was recorded in real-time using the ABI PRISM Sequence Detection System 7900HT (ThermoFisher). PCR amplification conditions consisted of 45 cycles with primers annealing at 60 °C. Relative RNA quantities were normalized to the reference genes GAPDH and Bactin and untreated cells were used to set calibrating conditions (ΔΔCt Method). Three biological replicates were performed.

[9] = 21 μM (IC5), significant after 7-day treatment

For CCOP(=S)(OCC)Oc1nc(Cl)c(Cl)cc1Cl [CPF, Chlorpyrifos], the “exposure in new-borns, concentration in blood” value [1] is given as “up to 4.9 μM”, the “exposure in new-borns, concentration in meconium” value [1] is given as 23.6 µM and the “Solubility and stability in aqueous medium solutions and DMSO” value ([2]; maximum concentration, 37 °C, controlled pH, different incubation times) is given as “soluble and chemically stable”. For the same compound, the Recovery from medium ([2]; serum-free medium) was 108.2 ± 18.6%, the “increase of neuronal cell percentage (β-III-Tubulin+)” value ([3]; all tested concentrations) was 10–15% and the “increase of GFAP+ cell percentage vs solvent control” value ([3]; concentration dependent) was 2- to 2.8 fold. The “increase of BDNF protein levels” value (BDNF protein) was ≤ 55%, the Cross-contamination among wells ([4]; first day of treatment) was “Not detectable” and the Cross-contamination among wells ([4]; last day of treatment) was “Not detectable”. For the same compound, the number of bursts [5, 9] was “modest decrease”, the spike rate [5, 9] was “modest decrease” and the “number of synchronized network bursts” value ([5]; 21 μM, starting from the 10th day of treatment) was “decrease”. The “concentration from which inhibition of neurite length, neurite number and branch points was observed” value (neuron-only cultures) was 10 µM, the vapour pressure ([6]; at 25 °C) was 2.02 × 10^−5 mm Hg and the “log Kow, octanol/water partition coefficient” value [6] was 4.96. The length of neurites ([7]; concentrations ≤ IC20) was “not significantly affected”, the “number of branch points/neurite (neurite complexity)” value ([7]; concentrations ≤ IC20) was “lower number of branch points/neurite” and the number of neurites/neuron ([7]; concentrations ≤ IC20 (18.45-37.10 μM)) was “concentration dependent decrease”. For the same compound, the CYP-2C9 gene expression ([8]; first day of treatment) was “tendency towards upregulation”, the GST gene expression ([8]; first day of treatment) was “did not change” and the CYP-1A1 gene expression ([8]; first day of treatment, after 3 h, 6 h and 24 h) was “Up-regulation”. For the same compound, the GST-A4 gene expression ([8]; first day, after 6 h treatment) was “modest decrease”, the CYP gene expression ([8]; repeated treatment) was “did not significantly change” and the “GST gene expression (all analysed GST genes)” value ([8]; repeated treatment) was “significant downregulation”. For the same compound, the CYP-2C19 gene expression ([8]; repeated treatment, after 1 h) was “transient upregulation”.
